Measured values: PMC10590056, “Design and synthesis of cabotegravir derivatives bearing 1,2,3-triazole and evaluation of anti-liver cancer activity” (Frontiers in Pharmacology, 2023)
Values joined by “and” are separate entries in the source; they are usually repeats but may differ in a detail not shown here. Identical values can stand only once.

Legend:
Assay type in all cases: cell-based
HepG2 cells = assay: MTT assay for cell proliferation and cytotoxicity, HepG2; design: key to Inhibitory rate: inhibition rate = 1 - mean A490 sample/mean A490 control (fraction); details: for IC50: HepG2, 48 h, MTT; for Inhibitory rate / ODtreated/ODcontrol: HepG2, fraction, per experiment; for Inhibition rate (16μM), 48 h, HepG2: preliminary screening, HepG2, 16 μM, mean±SD, unit not given
Experimental: (§1) HepG2, HeLa, MCF-7, and KYSE-30 cells were grown in a humidified incubator at 37°C with 5% CO2 in DMEM supplemented with 10% fetal bovine serum (FBS), […] streptomycin, and 100 U/mL penicillin.
(§2) When HepG2 cells reached 80% confluence, they were treated with 1 mL of trypsin and resuspended at a density of 10^5 cells/mL. Then, 100 μL of cell suspension was seeded into each well of a 96-well plate and incubated in a humidified atmosphere. The different concentrations of KJ-5 and KJ-12 (0, 1, 2, 4, 8, 16, and 32 μM) were added to each well, and the cells were further incubated for 48 h. Afterward, 20 μL of the MTT solution (5 mg/mL) was added to each well, and incubation was continued for another 4 h. The supernatant was discarded, and 200 μL of the DMSO solution was added to each well. The plate was shaken for 10 min in the dark. The absorbance values were measured at 490 nm using an enzyme-linked detector. The cell inhibition rate (%) was calculated using the following formula: (1-Mean A490 sample/Mean A490 control) × 100%.

KYSE-30 cells = assay: MTT assay for cell proliferation, KYSE-30; design: key to Inhibitory rate: inhibition rate = 1 - mean A490 sample/mean A490 control (fraction); details: for Inhibitory rate: KYSE-30, given as fraction; for Inhibition rate (16μM), 48 h, KYSE-30: preliminary screening, KYSE-30, 16 μM, mean±SD, unit not given
Experimental: as §1, §2

MCF-7 cells = assay: MTT assay for cell proliferation, MCF-7; design: key to Inhibitory rate / Inhibition rate: inhibition rate = 1 - mean A490 sample/mean A490 control (fraction); details: for Inhibition rate (16μM), 48 h, MCF-7: preliminary screening, MCF-7, 16 μM, mean±SD, unit not given
Experimental: as §1, §2

HeLa cells = assay: MTT assay for cell proliferation, HeLa; design: key to Inhibitory rate: inhibition rate = 1 - mean A490 sample/mean A490 control (fraction); details: Hela; for Inhibitory rate / ODtreated/ODcontrol: fraction, per experiment; for Inhibition rate (16μM), 48 h, Hela: preliminary screening, mean±SD, unit not given
Experimental: as §1, §2

[1] = KYSE-30, first of three experiments
[2] = KYSE-30, second of three experiments
[3] = KYSE-30, third of three experiments
[4] = MCF-7, fraction, per experiment
[5] = given as fraction, second of three experiments
[6] = given as fraction, third of three experiments

SMILES | IC50 (HepG2 cells) | Inhibitory rate (HepG2 cells) | ODtreated/ODcontrol (HepG2 cells) | Inhibition rate (16μM), 48 h, HepG2 (HepG2 cells) | ODtreated/ODcontrol (KYSE-30 cells; [1]) | Inhibitory rate (KYSE-30 cells; first of three experiments) | Inhibitory rate (KYSE-30 cells; second of three experiments) | Inhibitory rate (KYSE-30 cells; third of three experiments) | ODtreated/ODcontrol (KYSE-30 cells; [2]) | Inhibition rate (16μM), 48 h, KYSE-30 (KYSE-30 cells) | Inhibitory rate (MCF-7 cells; [4]) | ODtreated/ODcontrol (MCF-7 cells; [4]) | Inhibitory rate (MCF-7 cells; [5]) | Inhibition rate (MCF-7 cells; [6]) | Inhibition rate (16μM), 48 h, MCF-7 (MCF-7 cells) | ODtreated/ODcontrol (MCF-7 cells; second of three experiments) | ODtreated/ODcontrol (MCF-7 cells; third of three experiments) | Inhibitory rate (HeLa cells) | ODtreated/ODcontrol (HeLa cells) | Inhibition rate (16μM), 48 h, Hela (HeLa cells) | other results
COc1c2n(cc(C(=O)Nc3cccc(-c4cn(-c5cccc(F)c5)nn4)c3)c1=O)C[C@H]1OC[C@H](C)N1C2=O [KJ-6] | 7.63 ± 1.2 µM | 0.6124 and 0.6058 and 0.5961 | 0.3876 and 0.3942 and 0.4039 | 60.48±0.82 | 0.3817 | 0.6183 | 0.5213 | 0.4998 | 0.4787 | 54.65±6.31 | 0.5139 | 0.4861 | 0.536 | 0.519 | 52.3±1.16 | 0.464 | 0.481 | 0.6049 and 0.5572 and 0.5217 | 0.3951 and 0.4428 and 0.4783 | 56.13±4.18 | ODtreated/ODcontrol (KYSE-30 cells; [3]): 0.5002
COc1c2n(cc(C(=O)Nc3cccc(-c4cn(-c5ccc(F)cc5)nn4)c3)c1=O)CC1OCC(C)N1C2=O (stereo not shown) [KJ-14] | 9.94 ± 0.78 µM | 0.5683 and 0.5455 and 0.5583 | 0.4317 and 0.4545 and 0.4417 | 55.74±1.15 | 0.5122 | 0.4878 | 0.5323 |  | 0.4677 | 52.98±4.08 | 0.4819 | 0.5181 | 0.5123 | 0.5403 | 51.15±2.92 | 0.4877 | 0.4597 | 0.494 and 0.5678 and 0.4688 | 0.506 and 0.4322 and 0.5312 | 51.02±5.15 | 
COc1c2n(cc(C(=O)Nc3cccc(-c4cn(-c5ccc(C(F)(F)F)cc5)nn4)c3)c1=O)C[C@H]1OC[C@H](C)N1C2=O [KJ-10] | > 50 µM | 0.3299 and 0.3414 and 0.3063 | 0.6701 and 0.6586 and 0.6937 | 32.59±1.79 | 0.6507 | 0.3493 | 0.2142 | 0.2217 | 0.7858 | 26.17±7.59 | 0.366 | 0.634 | 0.3141 | 0.2908 | 33.36±3.87 | 0.6859 | 0.7092 | 0.353 and 0.3445 and 0.3223 | 0.647 and 0.6555 and 0.6777 | 33.99±1.59 | ODtreated/ODcontrol (KYSE-30 cells; [3]): 0.7783
COc1c2n(cc(C(=O)Nc3cccc(-c4cn(-c5cccc(Cl)c5)nn4)c3)c1=O)CC1OCC(C)N1C2=O (stereo not shown) [KJ-17] | 9.83 ± 0.85 µM | 0.6231 and 0.6364 and 0.626 | 0.3769 and 0.3636 and 0.374 | 62.85±0.70 | 0.4828 | 0.5172 | 0.6074 | 0.5319 | 0.3926 | 55.22±4.84 | 0.5766 | 0.4234 | 0.4958 | 0.6004 | 55.76±5.48 | 0.5042 | 0.3996 | 0.5384 and 0.6161 and 0.6258 | 0.4616 and 0.3839 and 0.3742 | 59.34±4.79 | ODtreated/ODcontrol (KYSE-30 cells; [3]): 0.4681
COc1c2n(cc(C(=O)Nc3cccc(-c4cn(-c5ccccc5OC(F)(F)F)nn4)c3)c1=O)C[C@H]1OC[C@H](C)N1C2=O [KJ-9] | 5.06 ± 0.06 µM | 0.8207 and 0.8024 and 0.7986 | 0.1793 and 0.1976 and 0.2014 | 80.72±1.18 | 0.3517 | 0.6483 | 0.6765 | 0.5914 | 0.3235 | 63.87±4.34 | 0.7135 | 0.2865 | 0.7214 | 0.6147 | 68.32±5.95 | 0.2786 | 0.3853 | 0.7654 and 0.7384 and 0.7732 | 0.2346 and 0.2616 and 0.2268 | 75.9±1.83 | ODtreated/ODcontrol (KYSE-30 cells; [3]): 0.4086
COc1c2n(cc(C(=O)Nc3cccc(-c4cn(-c5ccccc5Cl)nn4)c3)c1=O)CC1OCC(C)N1C2=O (stereo not shown) [KJ-19] | 7.5 ± 1.19 µM | 0.7209 and 0.735 and 0.7422 | 0.2791 and 0.265 and 0.2578 | 73.27±1.09 | 0.43 | 0.57 | 0.5211 | 0.5717 | 0.4789 | 55.43±2.87 | 0.5839 | 0.4161 | 0.531 | 0.6163 | 57.71±4.31 | 0.469 | 0.3837 | 0.6257 and 0.6335 and 0.6346 | 0.3743 and 0.3665 and 0.3654 | 63.13±0.49 | ODtreated/ODcontrol (KYSE-30 cells; [3]): 0.4283
COc1c2n(cc(C(=O)Nc3cccc(-c4cn(-c5cc(C(F)(F)F)ccc5C(F)(F)F)nn4)c3)c1=O)CC1OCC(C)N1C2=O (stereo not shown) [KJ-11] | > 50 µM | 0.2636 and 0.2471 and 0.2291 | 0.7364 and 0.7529 and 0.7709 | 24.66±1.73 | 0.7351 | 0.2649 | 0.225 | 0.2137 | 0.775 | 23.45±2.69 | 0.1458 | 0.8542 | 0.193 | 0.2016 | 18.01±3.00 | 0.807 | 0.7984 | 0.2491 and 0.2184 and 0.2018 | 0.7509 and 0.7816 and 0.7982 | 22.31±2.4 | ODtreated/ODcontrol (KYSE-30 cells; [3]): 0.7863
COc1c2n(cc(C(=O)Nc3cccc(-c4cn(-c5ccccc5)nn4)c3)c1=O)CC1OCC(C)N1C2=O (stereo not shown) [KJ-16] | 28.82 ± 0.1 µM | 0.4156 and 0.4284 and 0.3769 | 0.5844 and 0.5716 and 0.6231 | 40.70±2.68 | 0.634 | 0.366 | 0.4151 | 0.4118 | 0.5849 | 39.76±2.74 | 0.4071 | 0.5929 | 0.3917 | 0.4369 | 41.19±2.3 | 0.6083 | 0.5631 | 0.3434 and 0.3651 and 0.3539 | 0.6566 and 0.6349 and 0.6461 | 35.41±1.09 | ODtreated/ODcontrol (KYSE-30 cells; [3]): 0.5882
